Source: ChEMBL document CHEMBL1275528, “RamA confers multidrug resistance in Salmonella enterica via increased expression of acrB, which is inhibited by chlorpromazine” (2008)
Converted amounts (≈) assume the structure as drawn.

Columns and labels:
[1] = Antimicrobial activity against Salmonella serovar Typhimurium SL1344 expressing soxS::aph mutant by broth dilution method; format: functional; conditions: Salmonella enterica
[2] = Antimicrobial activity against Salmonella serovar Typhimurium SL1344 expressing tolC::aph mutant by broth dilution method; format: functional; conditions: Salmonella enterica
[3] = Antimicrobial activity against Salmonella serovar Typhimurium SL1344 by broth dilution method; format: functional; conditions: Salmonella enterica
[4] = Antimicrobial activity against Salmonella serovar Typhimurium SL1344 expressing ramA::aph mutant by broth dilution method; format: functional; conditions: Salmonella enterica
[5] = Antimicrobial activity against Salmonella serovar Typhimurium SL1344 expressing marA::aph mutant by broth dilution method; format: functional; conditions: Salmonella enterica
[6] = Antimicrobial activity against Salmonella serovar Typhimurium SL1344 expressing acrD::aph mutant by broth dilution method; format: functional; conditions: Salmonella enterica
[7] = Antimicrobial activity against Salmonella serovar Typhimurium SL1344 expressing acrF::aph mutant by broth dilution method; format: functional; conditions: Salmonella enterica
[8] = Antimicrobial activity against Salmonella serovar Typhimurium SL1344 expressing acrB::aph mutant by broth dilution method; format: functional; conditions: Salmonella enterica
[9] = Antimicrobial activity against Salmonella serovar Typhimurium SL1344 expressing ramA::aph-pTRC hisA:ramA mutant by broth dilution method in presence of chlorpromzine; format: functional; conditions: Salmonella enterica
[10] = Antimicrobial activity against Salmonella serovar Typhimurium SL1344 expressing ramA::aph-pTRC hisA:ramA mutant by broth dilution method in presence of IPTG; format: functional; conditions: Salmonella enterica
[11] = Antimicrobial activity against Salmonella serovar Typhimurium SL1344 expressing ramA::aph-pTRC hisA:ramA mutant by broth dilution method; format: functional; conditions: Salmonella enterica
[12] = Antimicrobial activity against Salmonella serovar Typhimurium SL1344 by broth dilution method in presence of chlorpromazine; format: functional; conditions: Salmonella enterica
[13] = Antimicrobial activity against Salmonella serovar Newport 129 by broth dilution method; format: functional, Salmonella enterica subsp. enterica serovar Newport; conditions: Salmonella enterica
[14] = Antimicrobial activity against Salmonella serovar Haifa 9878 by broth dilution method; format: functional, Salmonella enterica subsp. enterica serovar Haifa; conditions: Salmonella enterica
[15] = Antimicrobial activity against Salmonella serovar Mbandaka 7892 by broth dilution method; format: functional, Salmonella enterica subsp. enterica serovar Mbandaka; conditions: Salmonella enterica
[16] = Antimicrobial activity against Salmonella serovar Hadar by broth dilution method; format: functional, Salmonella enterica subsp. enterica serovar Hadar; conditions: Salmonella enterica
[17] = Antimicrobial activity against Salmonella serovar Virchow 5742 by broth dilution method; format: functional, Salmonella enterica subsp. enterica serovar Virchow; conditions: Salmonella enterica
[18] = Antimicrobial activity against Salmonella serovar Heidelberg 5171 by broth dilution method; format: functional, Salmonella enterica subsp. enterica serovar Heidelberg; conditions: Salmonella enterica
Salmonella typhimurium [19] = experiment: Antimicrobial activity against Salmonella serovar Typhimurium LT2 by broth dilution method; format: functional, Salmonella enterica subsp. enterica serovar Typhimurium; conditions: Salmonella enterica
[20] = Antimicrobial activity against Salmonella serovar Binza 8269 by broth dilution method; format: functional, Salmonella enterica subsp. enterica serovar Binza; conditions: Salmonella enterica
[21] = Antimicrobial activity against Salmonella serovar Kedougou by broth dilution method; format: functional, Salmonella enterica subsp. enterica serovar Kedougou; conditions: Salmonella enterica
[22] = Antimicrobial activity against Salmonella serovar Montevideo 5747 by broth dilution method; format: functional, Salmonella enterica subsp. enterica serovar Montevideo; conditions: Salmonella enterica
Salmonella typhimurium [23] = experiment: Antimicrobial activity against Salmonella serovar Typhimurium 14028S by broth dilution method; format: functional, Salmonella enterica subsp. enterica serovar Typhimurium; conditions: Salmonella enterica
Salmonella enteritidis = experiment: Antimicrobial activity against Salmonella serovar Enteritidis 5188 by broth dilution method; format: functional, Salmonella enterica subsp. enterica serovar Enteritidis; conditions: Salmonella enterica
[24] = Antimicrobial activity against Salmonella serovar Typhimurium SL1344 expressing acrB::aph mutant assessed as ramA expression at 200 ug/ml; format: functional
[25] = Antimicrobial activity against Salmonella serovar Typhimurium SL1344 assessed as ramA expression at 200 ug/ml; format: functional
[26] = Antimicrobial activity against Salmonella serovar Typhimurium SL1344 assessed as acrB expression at 200 ug/ml; format: functional
[27] = Antimicrobial activity against Salmonella serovar Typhimurium SL1344 expressing ramA::aph mutant assessed as acrB expression at 200 ug/ml; format: functional

SMILES | MIC [1] [µg/mL] | MIC [2] [µg/mL] | MIC [3] [µg/mL] | MIC [4] [µg/mL] | MIC [5] [µg/mL] | MIC [6] [µg/mL] | MIC [7] [µg/mL] | MIC [8] [µg/mL] | MIC [9] [µg/mL] | MIC [10] [µg/mL] | MIC [11] [µg/mL] | MIC [12] [µg/mL] | other results
Cc1ccccc1C(OCCN(C)C)c1ccccc1 (stereo not drawn) [ORPHENADRINE] | 1020 (≈ 3800 µM) | 1020 (≈ 3800 µM) | 1020 (≈ 3800 µM) | 1020 (≈ 3800 µM) | 1020 (≈ 3800 µM) | 1020 (≈ 3800 µM) | 1020 (≈ 3800 µM) | 1020 (≈ 3800 µM) | – | – | – | – | –
CCn1cc(C(=O)O)c(=O)c2ccc(C)nc21 [NALIDIXIC ACID] | – | – | 4 (≈ 17.2 µM) | 4 (≈ 17.2 µM) | – | – | – | – | 16 | 64 | 16 (≈ 68.9 µM) | – | –
CN1CCN(CCCN2c3ccccc3Sc3ccc(C(F)(F)F)cc32)CC1 [TRIFLUOPERAZINE] | 1020 (≈ 2510 µM) | 32 (≈ 78.5 µM) | 1020 (≈ 2510 µM) | 1020 (≈ 2510 µM) | 1020 (≈ 2510 µM) | 1020 (≈ 2510 µM) | 1020 (≈ 2510 µM) | 64 (≈ 157 µM) | – | – | – | – | –
O=C(N[C@H](CO)[C@H](O)c1ccc([N+](=O)[O-])cc1)C(Cl)Cl [CHLORAMPHENICOL] | – | – | 4 (≈ 12.4 µM) | 4 (≈ 12.4 µM) | – | – | – | – | 16 | 32 | 8 (≈ 24.8 µM) | 0.015 | –
O=C(O)c1cn(C2CC2)c2cc(N3CCNCC3)c(F)cc2c1=O [CIPROFLOXACIN] | – | – | 0.03 (≈ 0.0905 µM) | 0.03 (≈ 0.0905 µM) | – | – | – | – | 0.015 | 0.03 | 0.03 (≈ 0.0905 µM) | 0.008 | –
CO[C@@H]1[C@@H](OC(N)=O)[C@@H](O)[C@H](Oc2ccc3c(O)c(NC(=O)c4ccc(O)c(CC=C(C)C)c4)c(=O)oc3c2C)OC1(C)C [NOVOBIOCIN] | – | – | 512 (≈ 836 µM) | 256 (≈ 418 µM) | – | – | – | – | 512 | 1020 | 512 (≈ 836 µM) | 64 | –
CSc1ccc2c(c1)N(CCC1CCCCN1C)c1ccccc1S2 (stereo not drawn) [THIORIDAZINE] | 1020 (≈ 2760 µM) | 32 (≈ 86.3 µM) | 1020 (≈ 2760 µM) | 1020 (≈ 2760 µM) | 1020 (≈ 2760 µM) | 1020 (≈ 2760 µM) | 1020 (≈ 2760 µM) | 32 (≈ 86.3 µM) | – | – | – | – | –
CC[n+]1c(-c2ccccc2)c2cc(N)ccc2c2ccc(N)cc21.[Br-] [HOMIDIUM BROMIDE] | – | – | 1020 | 1020 | – | – | – | – | 512 | 2050 | 2050 | 8 | MIC [13]: 1020 µg/mL; MIC [14]: 1020 µg/mL; MIC [15]: 1020 µg/mL; MIC [16]: 1020 µg/mL; MIC [17]: 1020 µg/mL; MIC [18]: 512 µg/mL; MIC (Salmonella typhimurium [19]): 1020 µg/mL; MIC [20]: 1020 µg/mL; MIC [21]: 512 µg/mL; MIC [22]: 1020 µg/mL; MIC (Salmonella typhimurium [23]): 2050 µg/mL; MIC (Salmonella enteritidis): 1020 µg/mL
CCn1cc(C(=O)O)c(=O)c2cc(F)c(N3CCNCC3)cc21 [NORFLOXACIN] | – | – | 0.06 (≈ 0.188 µM) | 0.25 (≈ 0.783 µM) | – | – | – | – | 0.25 | 0.25 | 0.25 (≈ 0.783 µM) | 0.008 | MIC [13]: 0.06 µg/mL (≈ 0.188 µM); MIC [14]: 0.06 µg/mL (≈ 0.188 µM); MIC [15]: 0.06 µg/mL (≈ 0.188 µM); MIC [16]: 0.06 µg/mL (≈ 0.188 µM); MIC [17]: 0.06 µg/mL (≈ 0.188 µM); MIC [18]: 0.06 µg/mL (≈ 0.188 µM); MIC (Salmonella typhimurium [19]): 0.06 µg/mL (≈ 0.188 µM); MIC [20]: 0.06 µg/mL (≈ 0.188 µM); MIC [21]: 0.06 µg/mL (≈ 0.188 µM); MIC [22]: 0.06 µg/mL (≈ 0.188 µM); MIC (Salmonella typhimurium [23]): 0.06 µg/mL (≈ 0.188 µM); MIC (Salmonella enteritidis): 0.06 µg/mL (≈ 0.188 µM)
Oc1cc(Cl)ccc1Oc1ccc(Cl)cc1Cl [TRICLOSAN] | – | – | 0.12 (≈ 0.414 µM) | 0.12 (≈ 0.414 µM) | – | – | – | – | 0.25 | 1 | 0.25 (≈ 0.863 µM) | – | –
CN(C)c1ccc2cc3ccc(N(C)C)cc3nc2c1 [ACRIDINE ORANGE] | – | – | 512 (≈ 1930 µM) | 256 (≈ 965 µM) | – | – | – | – | 512 | 512 | 256 (≈ 965 µM) | 512 | –
CN(C)CCCN1c2ccccc2Sc2ccc(Cl)cc21 [CHLORPROMAZINE] | 256 (≈ 803 µM) | 32 (≈ 100 µM) | 512 (≈ 1610 µM) | 256 (≈ 803 µM) | 256 (≈ 803 µM) | 128 (≈ 401 µM) | 128 (≈ 401 µM) | 32 (≈ 100 µM) | – | 512 | 512 (≈ 1610 µM) | – | fold change (FC) [24]: 0.7; fold change (FC) [25]: 0.4; fold change (FC) [26]: 2.6; fold change (FC) [27]: 1.6
CN(C)CCC=C1c2ccccc2CCc2ccccc21 [AMITRIPTYLINE] | 512 (≈ 1850 µM) | 256 (≈ 923 µM) | 512 (≈ 1850 µM) | 512 (≈ 1850 µM) | 512 (≈ 1850 µM) | 1020 (≈ 3690 µM) | 512 (≈ 1850 µM) | 256 (≈ 923 µM) | – | – | – | – | –
CN(C)c1ccc(C(=C2C=CC(=[N+](C)C)C=C2)c2ccc(N(C)C)cc2)cc1.[Cl-] [GENTIAN VIOLET] | – | – | 2 | 2 | – | – | – | – | 0.5 | 2 | 2 | 1 | –
CN(C)[C@@H]1C(O)=C(C(N)=O)C(=O)[C@@]2(O)C(O)=C3C(=O)c4c(O)cccc4[C@@](C)(O)[C@H]3C[C@@H]12 [TETRACYCLINE] | – | – | 2 (≈ 4.5 µM) | 2 (≈ 4.5 µM) | – | – | – | – | 8 | 16 | 4 (≈ 9 µM) | 0.25 | –
